According to the NIST ThermoML archive (doi:10.1016/j.tca.2011.11.025):

Test: excess molar enthalpy (molar enthalpy of mixing); xn = mol fraction of the nth substance listed
Details: 308.15 K, 101 kPa, Liquid, 2-drop calorimeter

Cc1cccc(C)c1 [1,3-dimethylbenzene] + C1COCCO1
Details | excess molar enthalpy [kcal/mol]
x2 = 0.0638 | 0.0149
x2 = 0.1239 | 0.0289
x2 = 0.1845 | 0.0429
x2 = 0.223 | 0.0496
x2 = 0.2742 | 0.0593
x2 = 0.3357 | 0.0675
x2 = 0.4212 | 0.0759
x2 = 0.4781 | 0.0796
x2 = 0.5516 | 0.0797
x2 = 0.6212 | 0.0748
x2 = 0.6836 | 0.0687
x2 = 0.7583 | 0.0576
x2 = 0.7797 | 0.0534
x2 = 0.8183 | 0.0467
x2 = 0.8884 | 0.0298
x2 = 0.9481 | 0.0144

Cc1ccc(C)cc1 [1,4-dimethylbenzene] + C1COCCO1
Details | excess molar enthalpy [kcal/mol]
x2 = 0.0757 | 0.0122
x2 = 0.1355 | 0.0244
x2 = 0.1984 | 0.0362
x2 = 0.2656 | 0.0481
x2 = 0.3025 | 0.0538
x2 = 0.3648 | 0.062
x2 = 0.4154 | 0.0674
x2 = 0.4759 | 0.0705
x2 = 0.5524 | 0.0717
x2 = 0.6251 | 0.0687
x2 = 0.6956 | 0.0625
x2 = 0.7415 | 0.0563
x2 = 0.7867 | 0.0487
x2 = 0.8521 | 0.0355
x2 = 0.8953 | 0.026
x2 = 0.9326 | 0.0168
